According to ChEMBL document CHEMBL1143875, “Synthesis and structure-activity relationships of thiadiazole-derivatives as potent and orally active peroxisome proliferator-activated receptors alpha/delta dual agonists” (Bioorg Med Chem, 2008):
Active and inactive are the calls of the source. No cut-off for these calls is given here.

What was measured:
[1] = Cmax in Sprague-Dawley rat at 1 mg/kg administered as multiple dose after 8 days; assay type: ADME, organism-based; parameters: dose 1 mg/kg; conditions: in vivo
[2] = AUC in Sprague-Dawley rat at 3 mg/kg administered as multiple dose after 8 days; assay type: ADME, organism-based; parameters: dose 3 mg/kg; conditions: plasma
[3] = Cmax in Sprague-Dawley rat at 0.3 mg/kg administered as multiple dose after 8 days; assay type: ADME, organism-based; parameters: dose 0.3 mg/kg; conditions: in vivo
[4] = AUC in ob/ob C57BL/6J-leptin deficient obese mouse at 0.1 mg/kg administered as multiple dose after 11 days; assay type: ADME, organism-based; parameters: dose 0.1 mg/kg; conditions: plasma
[5] = AUC in Beagle dog at 0.3 mg/kg administered as multiple dose after 7 days; assay type: ADME, organism-based, Canis lupus familiaris; parameters: dose 0.3 mg/kg; conditions: plasma
[6] = Cmax in Beagle dog at 0.3 mg/kg administered as multiple dose after 7 days; assay type: ADME, organism-based, Canis lupus familiaris; parameters: dose 0.3 mg/kg; conditions: in vivo
[7] = Cmax in ob/ob C57BL/6J-leptin deficient obese mouse at 0.3 mg/kg administered as multiple dose after 11 days; assay type: ADME, organism-based; parameters: dose 0.3 mg/kg; conditions: in vivo
[8] = Activity at retinoic acid X receptor
Canis familiaris [9] = test: Antihyperlipidemic activity in Beagle dog serum assessed as reduction in free fatty acids level at 0.3 to 10 mg/kg, po/day after 7 days; assay type: functional, organism-based; conditions: Canis lupus familiaris
[10] = AUC in Beagle dog at 3 mg/kg administered as multiple dose after 7 days; assay type: ADME, organism-based, Canis lupus familiaris; parameters: dose 3 mg/kg; conditions: plasma
[11] = Half life in Beagle dog at 10 mg/kg administered as single dose on day 7; assay type: ADME, organism-based, Canis lupus familiaris; parameters: dose 10 mg/kg; conditions: in vivo
Canis familiaris [12] = test: Antihyperlipidemic activity in Beagle dog serum assessed as reduction in triglyceride level at 0.3 to 10 mg/kg, po/day after 7 days; assay type: functional, organism-based; conditions: Canis lupus familiaris
[13] = AUC in Sprague-Dawley rat at 3 mg/kg administered as single dose on day 8; assay type: ADME, organism-based; parameters: dose 3 mg/kg; conditions: plasma
[14] = Induction of Pa9 gene expression in human skeletal muscle cells at 1 nM by RT-PCR; assay type: functional
[15] = AUC in Sprague-Dawley rat at 0.3 mg/kg administered as multiple dose after 8 days; assay type: ADME, organism-based; parameters: dose 0.3 mg/kg; conditions: plasma
[16] = Activity at retinoic acid receptor

- Cmax [1]: 1360 ng/mL
- AUC at 192 h [2]: 27100 ng·h/mL
- Cmax [3]: 231 ng/mL
- AUC at 264 h [4]: 2780 ng·h/mL
- AUC at 168 h [5]: 2650 ng·h/mL
- Cmax [6]: 398 ng/mL
- Cmax [7]: 1840 ng/mL
- Activity [8]: inactive
- AUC at 168 h [10]: 24100 ng·h/mL
- half-life [11]: 5.8 h
- AUC [13]: 24200 ng·h/mL
- AUC at 192 h [15]: 2400 ng·h/mL
- Activity [16]: inactive
SMILES: Cc1cc(SCc2nc(-c3ccc(Cl)c(Cl)c3)ns2)ccc1OC(C)(C)C(=O)O
- Activity (Canis familiaris [9]): Dose-dependent effect
- Activity (Canis familiaris [12]): Dose-dependent effect
- Fold change [14]: 3.8
